Measured values as given in patent publication US20100029710A1, “COMPOUNDS HAVING BOTH ANGIOTENSIN II RECEPTOR ANTAGONISM AND PPARy ACTIVATING ACTIVITIES” (Pfizer Products Inc., priority 2006, published 2010).

Legend:
[1] = tested on: Spontaneously hypertensive rats (SHR); test: Blood pressure reduction in vivo assay (radiotelemetry); conditions: SHR rat, single dose 10 mg/kg p.o.
Method: The rats are surgically implanted with radio-telemetry transmitters to allow capture of conscious, unrestrained systolic and diastolic BP as well as heart rate.
In vivo studies were conducted to show the effectiveness of a compound in reducing blood pressure due to its angiotensin II receptor antagonist activity, and its ability to induce insulin sensitization in a diabetic rat due to its PPARγ agonist activity.
Spontaneously hypertensive rats (SHR) were implanted with radiotelemetry devices capable of measuring blood pressure (BP) via an aortic cannula and transmitting the data to a receiving pad under the cage. Animals were conscious and had access to food and water ad libitum while blood pressure was monitored continuously. Rats were dosed with vehicle and monitored for 24 hours to establish baseline before administering compound and measuring changes in blood pressure for another 24 hours. Changes in blood pressure were calculated over time and compared to vehicle controls.

[2] = molecular target: T1, human PPARγ LBD bound to Gal4 DBD (Homo sapiens, UniProt P37231); test: PPARγ transfection luciferase reporter assay in HepG2 cells; format: cell-based; conditions: for Emax: HepG2, 24 h, compared to full agonist response (standard TZD full agonist), read-out: PPARγ % activation; for EC50: HepG2, 24 hours exposure
T1 construct: expressed in transfected cells; host or cells: HepG2
T1 sequence (P37231 238-503 limits assumed): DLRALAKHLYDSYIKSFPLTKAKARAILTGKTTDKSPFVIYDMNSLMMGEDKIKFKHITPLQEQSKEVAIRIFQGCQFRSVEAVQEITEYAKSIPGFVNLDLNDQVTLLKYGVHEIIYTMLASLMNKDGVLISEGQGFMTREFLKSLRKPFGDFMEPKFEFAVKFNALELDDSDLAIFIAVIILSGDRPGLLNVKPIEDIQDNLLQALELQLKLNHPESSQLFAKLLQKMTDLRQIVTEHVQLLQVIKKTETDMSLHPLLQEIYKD
In short: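 HepG2 cells transiently co-transfected with Gal4 DBD–PPARγ LBD, luciferase reporter and β-galactosidase, then exposed 24 h to compound (0.1 nM–100 μM). Luciferase/β-gal ratio gives activation. EC50 is relative to each compound's own maximum; efficacy is % of a reference TZD full agonist.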

[3] = tested on: ZDF male rat; test: Glucose lowering in vivo assay; conditions: 10 mg/kg p.o. once daily for 28 days; for Difference from Vehicle Control: blood glucose
Excerpt: Homozygous expression of this mutation leads to a phenotype of hyperphagia, obesity, insulin resistance, hyperglycemia, and hypertriglyceridemia resulting in uncontrolled diabetes, β-cell failure, severe nephropathy, and proteinuria by 16 weeks of age.
The hypoglycemic activity of the compounds of this invention can be determined by the amount of test compound that delays or suppresses elevations in glucose levels relative to a vehicle without test compound in male ZDF rats.
Male Zucker Diabetic Fatty (ZDF/Crl-Lepr^fa) rats were obtained from Charles River Laboratories (Wilmington, Mass.). Rats were pair housed under a 12-h light/dark cycle with free access to water and Purina 5008 rat chow (Protein 26.8%, fat 16.7%, carbohydrates 56.5% kcal/vol; Purina Mills, Richmond, Ind.). Prior to the onset of diabetic hyperglycemia (fed blood glucose<200 mg/dl) rats were randomly allocated to groups based on HOMA values. The Homeostasis Model Assessment (HOMA) calculation estimates peripheral insulin resistance from corresponding insulin and glucose measurements. Rats were administered a once daily oral dose for 28 days with suspensions of vehicle alone (1.5% carboxymethyl-cellulose plus 0.2% Tween 20), vehicle plus test compound in the range 0.1-100 mg/kg. At the end of the study, an oral glucose tolerance test (OGTT, 2 g/kg dextrose) was conducted to measure glucose excursion. Tail venipuncture in conscious, 1 hr fasted animals at baseline and weekly thereafter, provided sample for blood glucose, serum insulin, triglycerides, cholesterol, and FFA measurements. Glucose levels were determined with a HemoCue Glucose Monitor (Ryan Diagnostics), insulin was determined by ELISA (Alpco), and lipids were determined by Cobas Mira Analyzer (Roche) and by enzymatic assays (Wako). Lipoprotein cholesterol was determined by FPLC following the method of Kieft et al. (Kieft K A, Bocan T M, Krause B R. Rapid on-line determination of cholesterol distribution among plasma lipoproteins after high-performance gel filtration chromatography. J Lipid Res 1991; 32(5): 859-66). Briefly, plasma was separated on a Superose 6HR 10/30 column (Pharmacia) and cholesterol was then measured in-line utilizing a post-column enzymatic cholesterol assay (Roche). Percent of total area for each lipoprotein fraction were calculated. These percent areas were then multiplied by the total plasma cholesterol concentration, yielding the cholesterol concentration in each fraction. Efficacy was determined by comparison to untreated vehicle controls and reference agents and active compounds selected for further evaluation.

[4] = molecular target: T2, Human recombinant AT1 receptor (Homo sapiens, UniProt P30556); test: AT1 receptor radioligand binding (flashplate); conditions: 125I Sar1,Ile8-Angiotensin II radioligand
T2 construct: purchased
T2 sequence (P30556 1-359): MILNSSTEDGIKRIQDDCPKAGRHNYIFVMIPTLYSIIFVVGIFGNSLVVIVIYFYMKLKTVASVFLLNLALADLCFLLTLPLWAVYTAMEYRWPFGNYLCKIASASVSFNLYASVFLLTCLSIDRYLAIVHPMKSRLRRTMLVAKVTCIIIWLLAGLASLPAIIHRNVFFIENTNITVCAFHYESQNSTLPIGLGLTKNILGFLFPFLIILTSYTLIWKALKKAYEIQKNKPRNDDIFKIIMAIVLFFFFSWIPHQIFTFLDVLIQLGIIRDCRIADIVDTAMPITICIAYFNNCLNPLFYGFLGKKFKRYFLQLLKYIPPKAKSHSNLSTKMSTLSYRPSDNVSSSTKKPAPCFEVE
In short: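 Human recombinant AT1 receptor was coated on flashplates and competed against 125I-Sar1,Ile8-angiotensin II at its Kd concentration for 2 h at room temperature. Compounds were tested from […], with nonspecific binding defined by 10 μM angiotensin II. Ki was derived via Cheng-Prusoff.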

SMILES | Duration of activity [1] [h] | Maximal fall in Mean Blood Pressure after single dose of 10 mg/kg p.o. (mmHg) [1] [mmHg] | Emax [2] [%] | EC50 [2] [nM] | Blood Glucose (1 h Fast) after single daily dose of 10 mg/kg p.o. for 28 days [3] [mg/dL] | Difference from Vehicle Control [3] [mg/dL] | IC50 [4] [nM]
CCc1nc2c(C)cc([C@@H](O)C(C)C)nc2n1[C@H]1CCc2cc(-c3ccccc3-c3nnn[nH]3)ccc21 [Example 10, (S)-1-(3-((1S)-5-(2-(1H-tetrazol-5-yl)phenyl)-2,3-dihydro-1H-inden-1-yl)-2-ethyl-7-methyl-3H-imidazo[4,5-b]pyridin-5-yl)-2-methylpropan-1-ol] | >20 | −27 | 27 | 145 | 239 | -133 | 1.6
CCc1nc2c(C)cc(CCOC)nc2n1[C@H]1CCc2cc(-c3ccccc3-c3nnn[nH]3)ccc21 [Example 13, 3-((1S)-5-(2-(1H-tetrazol-5-yl)phenyl)-2,3-dihydro-1H-inden-1-yl)-2-ethyl-5-(2-methoxyethyl)-7-methyl-3H-imidazo[4,5-b]pyridine] | >20 | −46 | 26 | 435 | 120 | -469 | 2.5
CCc1nc2c(C)cc(CCO)nc2n1[C@H]1CCc2cc(-c3ccccc3-c3nnn[nH]3)ccc21 [Example 13a, 2-(3-((1S)-5-(2-(1H-tetrazol-5-yl)phenyl)-2,3-dihydro-1H-inden-1-yl)-2-ethyl-7-methyl-3H-imidazo[4,5-b]pyridin-5-yl)ethanol] | >20 | −28 | 24 | 415 | 112 | -477 | 4.1
CCc1nc2c(C)cc(CC(C)(C)O)nc2n1[C@H]1CCc2cc(-c3ccccc3-c3nnn[nH]3)ccc21 [Example 16, 1-(3-((1S)-5-(2-(1H-tetrazol-5-yl)phenyl)-2,3-dihydro-1H-inden-1-yl)-2-ethyl-7-methyl-3H-imidazo[4,5-b]pyridin-5-yl)-2-methylpropan-2-ol] | >20 | −37 | 20 | 250 | 114 | -475 | 2.9
